# Laboratory results taken from patent publication US6512166B1, “Combinations of fungal cell wall degrading enzyme and fungal cell membrane affecting compound” (priority 1991, dated 2003).
# Where two headings read alike, the source gives them in different places.
# What was measured:
# [1] = Solubility, guidance for forming solutions
# From the text: Compositions for use in the systems herein are readily formulated by admixing the fungal cell wall degrading enzymes and the antifungal fungal cell membrane affecting compounds with non-toxic carriers appropriate for the particular use for a composition, e.g., agriculturally acceptable carriers for agricultural uses and pharmaceutically acceptable carriers for medicinal uses. They may be formulated as liquids (solutions or suspensions) or as solids. Since the fungal cell wall degrading enzymes need free water for activity, water must be present at the time of function. […] Water is a preferred vehicle where components are soluble in it. […] Organic solvents can also be used and may be required in some cases if a solution is desired. Guidance for forming solutions follows. […] Suspension can also be employed.
# [2] = test system: Fusarium oxysporum strain FOP1; assay: Inhibition of spore germination, ELISA plate assay (Examples V-XIV, XVII); format: cell-based; settings: Table 28; concentration of flusilazole for 50% inhibition, alone or with enzyme at its ED10 concentration
# Experimental: (§1) The concentration where fungal cell wall degrading enzyme individually provides a specified percentage fungal inhibition or where antifungal fungal cell membrane affecting compound individually provides a specific percentage fungal inhibition can be determined as follows: Assays are performed under sterile conditions. Equal volumes of spore suspensions, 3× potato dextrose broth, and the test solution or suspension in 5 mM Tris-HCl (pH 6.0) or 5 mM potassium phosphate buffer (pH 6.7) are mixed. The control is the same as the test solution except for the control the antifungal agent is omitted. The assay mixtures (total volume 45 or 30 μl) are incubated on flat-bottomed ELISA plates, each containing 96 wells, with 2,000 to 3,000 spores per well, at 25° C. After 22 to 30 hours, the plates are placed under an inverted microscope. The percentage of conidia germinating is determined as the percentage of the first 100 spores randomly found in a well. In addition, the lengths of 20 germ tubes are measured and averaged. All experiments are performed twice, with three replicates for each treatment. The inhibition values obtained in the two experiments are combined and averaged, and standard deviations are calculated from the 6 data points. The values obtained for the control are taken as 0% inhibition and all other values are divided by the values obtained for the control and multiplied by 100% to obtain percent inhibition. Determination of concentration corresponding to a particular percent inhibition is carried out by subjecting dose-response curves to regression analysis by using a binomial regression of the third order, with R^2 ranging between 0.95 and 0.99.
# (§2) Assays were carried out by the procedure described in the summary of the invention section. Dose response curves were obtained by probit analysis of data collected from two separate experiments with each experiment involving three treatment replicates.
# (§3) Dose response curves were determined for each antifungal fungal cell membrane affecting compound and for each fungal cell wall degrading enzyme singly. Then each fungal cell wall degrading enzyme at a concentration giving 10% inhibition when used alone was combined with increasing amounts of antifungal fungal cell membrane affecting compound. Then the concentration of antifungal fungal cell membrane affecting compound causing the ED50 for each combination was calculated by probit analysis of data collected from two experiments with three treatment replicates for each experiment. Assays for inhibition of spore germination were carried out as described in the summary of invention section above.
# The relative level of synergism (RS below) for each combination was calculated by applying Limpel's formula: Ee=X+Y−(XY/100) as described in Richer, D. L, Pestic. Sci. 19, 309-315, 1987. In Limpel's formula, X and Y are the percentages of inhibition relative to each compound used alone and Ee is the expected effect for an additional (non-synergistic) effect. If the combination of the two agents produces an observed effect (Eo) greater than Ee, synergism exists, and as the difference between Eo and Ee increases, the level of synergism is greater. In this experiment, the X value (percentage inhibition by fungal cell wall degrading enzyme when used alone was chosen to be 10 (10% inhibition of spore germination when used alone) and the observed effect, Eo, was 50 (i.e., 50% inhibition of spore germination). The Y values were obtained from the determined concentrations of antifungal cell membrane affecting compound causing the ED50 for a combination and the dose response curves for the antifungal cell membrane affecting compound used alone—i.e., the Y value was the percent inhibition for the antifungal fungal cell membrane affecting compound when used alone for the concentration of antifungal fungal cell membrane affecting compound that was determined to cause the ED50 for the combination. Ee values were then calculated from Limpel's formula. […]
# [3] = test system: Botrytis cinerea; assay: Inhibition of spore germination, Eppendorf tube assay (Examples I and II); format: cell-based; settings: for inhibition at 0.5 µg/mL: read-out: % inhibition; for % inhibition: enzyme 0 μg ml^−1 (fungicide alone); for % inhibition / Ee, expected effect from an additive response according to Limpel's formula, percent inhibition / Io, percent inhibition observed: flusilazole 5 ng ml^−1, miconazole 0.5 μg ml^−1; for ED50 of fungicide (dose effective for 50% inhibition): Table 9
# [4] = test system: B. cinerea strain 12; assay: Inhibition of spore germination, ELISA plate assay (Examples III-XVI, XVIII); format: cell-based, Botrytis cinerea; settings: Table 20; concentration of flusilazole for 50% inhibition, alone or with enzyme at its ED10 concentration
# Experimental: as §1, §2
# Each of 8 antifungal fungal cell membrane affecting compounds were used in combination with each of 8 or 6 fungal cell wall degrading enzymes to provide 50% inhibition (ED50) of B. cinerea strain 12 spore germination. Each fungal cell wall degrading enzyme was used at a concentration giving 10% inhibition of spore germination when used alone in combination with an amount of antifungal fungal cell membrane affecting compound so the combination gave 50% inhibition of spore germination.
# as §3
# The relative level of synergism (RS below) for each combination was calculated by applying Limpel's formula: Ee=X+Y−(XY/100) as described in Richer, D. L, Pestic. Sci. 19, 309-315, 1987. In Limpel's formula, X and Y are the percentages of inhibition relative to each compound used alone and Ee is the expected effect for an additional (non-synergistic) effect. If the combination of the two agents produces an observed effect (Eo) greater than Ee, synergism exists, and as the difference between Eo and Ee increases, the level of synergism is greater. […]
compound,measurement,setting,value
"C[Si](Cn1cncn1)(c1ccc(F)cc1)c1ccc(F)cc1 [Flusilazole, flusilazole]",solubility (solvent in which the substance dissolves),[1],dissolve in acetone
same,ED50,[2],59.0 (51-65) ng ml^−1
same,inhibition at 5 ng/mL,"[3]; Botrytis cinerea, Table 5, endochitinase from G. virens strain 41 at 25 μg ml^−1, with flusilazole 5 ng ml^−1, miconazole 0.5 μg ml^−1 or none (enzyme alone)",89%
same,inhibition at 0.5 µg/mL,"[3]; Table 4, endochitinase from T. harzianum strain P1 at 75 μg ml^−1, with flusilazole 5 ng ml^−1, miconazole 0.5 μg ml^−1 or none (enzyme alone)",100%
same,% inhibition,[3]; Table 4,18%
same,% inhibition,[3]; Table 5,18%
same,inhibition at 0.5 µg/mL,"[3]; Table 6, chitobiosidase from T. harzianum strain P1 at 75 μg ml^−1, with flusilazole 5 ng ml^−1, miconazole 0.5 μg ml^−1 or none (enzyme alone)",100%
same,% inhibition,[3]; Table 6,18%
same,% inhibition,[3]; Table 7,18%
same,inhibition at 0.5 µg/mL,"[3]; Table 7, glucan 1,3-β-glucosidase from T. harzianum strain P1 at 100 μg ml^−1, with flusilazole 5 ng ml^−1, miconazole 0.5 μg ml^−1 or none (enzyme alone)",100%
same,ED50 of fungicide (dose effective for 50% inhibition),[3]; no endochitinase (0 μg ml^−1),60 ng/mL
same,ED50 of fungicide (dose effective for 50% inhibition),[3]; with endochitinase from T. harzianum strain P1 at 10 μg ml^−1,0.7 ng/mL
same,ED50 of fungicide (dose effective for 50% inhibition),[3]; with endochitinase from T. harzianum strain P1 at 25 μg ml^−1,0.3 ng/mL
same,ED50 of fungicide,"[3]; Table 10, no chitobiosidase (0 μg ml^−1)",60 ng/mL
same,ED50 of fungicide,"[3]; Table 10, with chitobiosidase from T. harzianum strain P1 at 25 μg ml^−1",1 ng/mL
same,ED50 of fungicide,"[3]; Table 10, with chitobiosidase from T. harzianum strain P1 at 50 μg ml^−1",0.4 ng/mL
same,ED50 of fungicide,"[3]; Table 10, with chitobiosidase from T. harzianum strain P1 at 75 μg ml^−1",0.35 ng/mL
same,ED50 of fungicide,"[3]; Table 10, with chitobiosidase from T. harzianum strain P1 at 100 μg ml^−1",0.3 ng/mL
same,ED50 of fungicide,"[3]; Table 11, no glucosidase (0 μg ml^−1)",60 ng/mL
same,ED50 of fungicide,"[3]; Table 11, with glucan 1,3-β-glucosidase from T. harzianum strain P1 at 25 μg ml^−1",3.3 ng/mL
same,ED50 of fungicide,"[3]; Table 11, with glucan 1,3-β-glucosidase from T. harzianum strain P1 at 50 μg ml^−1",1 ng/mL
same,ED50 of fungicide,"[3]; Table 11, with glucan 1,3-β-glucosidase from T. harzianum strain P1 at 75 μg ml^−1",0.17 ng/mL
same,ED50 of fungicide,"[3]; Table 12, no endochitinase (0 μg ml^−1)",60 ng/mL
same,ED50 of fungicide,"[3]; Table 12, with endochitinase from G. virens strain 41 at 25 μg ml^−1",2.5 ng/mL
same,ED50 of fungicide,"[3]; Table 12, with endochitinase from G. virens strain 41 at 50 μg ml^−1",1 ng/mL
same,ED50 of fungicide,"[3]; Table 12, with endochitinase from G. virens strain 41 at 75 μg ml^−1",4.5 ng/mL
same,ED50 of fungicide,"[3]; Table 12, with endochitinase from G. virens strain 41 at 100 μg ml^−1",0.22 ng/mL
same,"Ee, expected effect from an additive response according to Limpel's formula, percent inhibition",[3]; with Chitob. (P1) 25 μg ml^−1,27%
same,"Io, percent inhibition observed",[3]; with Endoc. (41) 25 pg ml^−1 (so in the source),67%
same,"Ee, expected effect from an additive response according to Limpel's formula, percent inhibition",[3]; with Endoc. (P1) 25 μg ml^−1,41%
same,"Ee, expected effect from an additive response according to Limpel's formula, percent inhibition",[3]; with Glucan. (P1) 25 μg ml^−1,22.1%
same,"Io, percent inhibition observed",[3]; with Glucan. (P1) 25 μg ml^−1,65%
same,ED50,[4],68 (61-85) ng ml^−1
